Source: US20240189319A1, “RIFAMYCIN ANALOGS IN COMBINATION WITH VANCOMYCIN AND USES THEREOF” (Regeneron Pharmaceuticals, Inc, priority 2021, published 2024)

Assays:
[1] = tested on: S. aureus MRSA strain NRS384; assay: S. aureus IV advanced disseminated infection mouse model, strain NRS384 (kidney burden); assay type: in vivo, Staphylococcus aureus; settings: for kidney burden reduction in combination with vancomycin, compared with rifampicin plus vancomycin (in words): Example 3B versus Example 3A; for kidney burden, combination with vancomycin versus vancomycin alone (in words): 0.01-0.25 mg/kg + vancomycin
Description: (§1) To test the efficacy of rifamycin analogs (I) and (II) according to the disclosure in combination therapy with vancomycin in vivo, a 4-day intravenous disseminated infection model was utilized. S. aureus MSRA strain NRS384 or N315, where indicated, was grown overnight in tryptic soy broth (TSB) and sub-cultured to mid-logarithmic phase. Bacteria were then washed twice with PBS and resuspended in PBS at a concentration of 1.5×10^8 cfu/mL NRS384 or 6.0×10^8 N315. Six-week-old Balb/c mice were then infected intravenously through the tail vein with 100 uL of the bacterial suspension, for a final infectious dose of 1.5×10^7 cfu/mouse NRS384 or 6.0×10^7 N315. From one to three days post infection, indicated mice were treated with 110 mg/kg vancomycin subcutaneously twice daily where indicated. Rifamycin analogs (I) or (II) were administered subcutaneously at the indicated dose two days after infection. Mice were monitored for weight loss and body conditioning score throughout the infection. At four days post infection, mice were euthanized, and the S. aureus kidney burden was quantified by tissue homogenization followed by enumeration of colony forming units through serial dilution in PBS and plating onto trypticase soy agar plates. Data points represent the kidney burden from individual mice tested.
In this experiment, mice infected with S. aureus MSRA strain NRS384 were treated with vancomycin alone (control) or vancomycin in combination with 0.002 mg/kg to 25 mg/kg rifampicin, a commercially-available rifamycin analog control.
In this experiment, mice infected with S. aureus MSRA strain NRS384 were treated with vancomycin alone (control) or vancomycin in combination with 0.01-0.25 mg/kg rifamycin analog (I) or 0.01-0.25 mg/kg rifamycin analog (II).
In this experiment, mice infected with S. aureus MSRA strain NRS384 were treated with 25 mg/kg rifampicin (control) or 0.002-0.25 mg/kg rifamycin analog (II) alone or in combination with vancomycin, with vancomycin alone as a control.

[2] = tested on: S. aureus MRSA strain N315; assay: S. aureus IV advanced disseminated infection mouse model, strain N315 (kidney burden); assay type: in vivo, Staphylococcus aureus; settings: for kidney burden relative to limit of detection (in words) / Median cfu/kidney pair / bacterial load relative to limit of detection (in words): Example 3D; for Median cfu/kidney pair: day 4, LOD 250
Description: as §1
In this experiment, mice infected with S. aureus MSRA strain N315 were treated with 25 mg/kg rifampicin (control), or 0.01-0.75 mg/kg rifamycin analog (I), or 0.002-0.25 mg/kg rifamycin analog (II) in combination with vancomycin, with vancomycin alone as a control.

[3] = Example 3B, dose 0.01 mg/kg sc day 2 + vancomycin 110 mg/kg twice daily, day 4, LOD 250
[4] = Example 3B, dose 0.05 mg/kg sc day 2 + vancomycin 110 mg/kg twice daily, day 4, LOD 250
[5] = Example 3B, dose 0.25 mg/kg sc day 2 + vancomycin 110 mg/kg twice daily, day 4, LOD 250
[6] = dose 0.01 mg/kg + vancomycin 110 mg/kg twice daily
[7] = dose 0.05 mg/kg + vancomycin 110 mg/kg twice daily
[8] = dose 0.25 mg/kg + vancomycin 110 mg/kg twice daily

CO[C@H]1/C=C/O[C@@]2(C)Oc3c(C)c(O)c4c(=O)c(c5oc6cc(OCCN(C)C)cc(O)c6nc-5c4c3C2=O)NC(=O)/C(C)=C\C=C\[C@H](C)[C@H](O)[C@@H](C)[C@@H](O)[C@@H](C)[C@H](OC(C)=O)[C@@H]1C [Rifamycin analog (I)]
kidney burden reduction in combination with vancomycin, compared with rifampicin plus vancomycin (in words) [1]: effective at reducing S. aureus kidney burden at lower doses than rifampicin
kidney burden, combination with vancomycin versus vancomycin alone (in words) ([1]; Example 3B): further reduced kidney burden
Median cfu/kidney pair [1, 3]: 5.88E+04 cfu/kidney pair
Median cfu/kidney pair [1, 4]: 5.75E+03 cfu/kidney pair
Median cfu/kidney pair [1, 5]: 2.50E+02 cfu/kidney pair
kidney burden relative to limit of detection (in words) ([2]; 0.01-0.75 mg/kg + vancomycin): at or near the limit of detection
Median cfu/kidney pair [2, 6]: 2.50E+02 cfu/kidney pair
Median cfu/kidney pair [2, 7]: 2.50E+02 cfu/kidney pair
Median cfu/kidney pair [2, 8]: 2.50E+02 cfu/kidney pair
Median cfu/kidney pair ([2]; dose 0.75 mg/kg + vancomycin 110 mg/kg twice daily): 2.50E+02 cfu/kidney pair
bacterial load relative to limit of detection (in words) ([2]; dose of 0.01 mg/kg in combination with vancomycin): below the limit of detection

Vancomycin [reference compound]
Median cfu/kidney pair ([1]; Example 3A, Balb/c mice, vancomycin alone 110 mg/kg sc twice daily days 1-3, day 4 post infection, limit of detection 250): 1.30E+06 cfu/kidney pair
Median cfu/kidney pair ([1]; Example 3B, vancomycin alone 110 mg/kg sc twice daily, day 4, LOD 250): 3.50E+06 cfu/kidney pair
efficacy when rifamycin analog (II) and vancomycin are used in combination (in words) ([1]; Example 3C): enhanced
Median cfu/kidney pair ([1]; Example 3C, vancomycin alone 110 mg/kg sc twice daily, day 4, LOD 250): 1.13E+06 cfu/kidney pair
reduction in S. aureus kidney burden ([1]; vancomycin treatment alone (Examples 3A, 3B, 3C)): 2-3 log
Median cfu/kidney pair ([2]; vancomycin alone 110 mg/kg sc twice daily): 3.88E+04 cfu/kidney pair
reduction in S. aureus kidney burden ([2]; vancomycin treatment alone (Example 3D)): ~4 log

CO[C@H]1/C=C/O[C@@]2(C)Oc3c(C)c(O)c4c(=O)c(c5oc6cc(OCCN(C)C)ccc6nc-5c4c3C2=O)NC(=O)/C(C)=C\C=C\[C@H](C)[C@H](O)[C@@H](C)[C@@H](O)[C@@H](C)[C@H](OC(C)=O)[C@@H]1C [Rifamycin analog (II)]
reduction in S. aureus kidney burden ([1]; 0.25 mg/kg as a monotherapy (Example 3C)): ~3 logs
kidney burden reduction in combination with vancomycin, compared with rifampicin plus vancomycin (in words) [1]: effective at reducing S. aureus kidney burden at lower doses than rifampicin
kidney burden, combination with vancomycin versus vancomycin alone (in words) ([1]; Example 3B): further reduced kidney burden
Median cfu/kidney pair [1, 3]: 2.50E+02 cfu/kidney pair
Median cfu/kidney pair [1, 4]: 2.50E+02 cfu/kidney pair
Median cfu/kidney pair [1, 5]: 3.38E+05 cfu/kidney pair
S. aureus kidney burden relative to limit of detection (in words) ([1]; Example 3B, lowest tested dose 0.01 mg/kg + vancomycin): below the limit of detection
combination with vancomycin versus monotherapies in reducing bacterial burden (in words) ([1]; Example 3C): more effective than either monotherapy
efficacy when rifamycin analog (II) and vancomycin are used in combination (in words) ([1]; Example 3C): enhanced
Median cfu/kidney pair ([1]; Example 3C, dose 0.002 mg/kg + vancomycin 110 mg/kg twice daily, day 4, LOD 250): 2.50E+02 cfu/kidney pair
Median cfu/kidney pair ([1]; Example 3C, dose 0.002 mg/kg, without vancomycin, day 4, LOD 250): 2.75E+07 cfu/kidney pair
Median cfu/kidney pair ([1]; Example 3C, dose 0.01 mg/kg + vancomycin 110 mg/kg twice daily, day 4, LOD 250): 2.50E+02 cfu/kidney pair
Median cfu/kidney pair ([1]; Example 3C, dose 0.01 mg/kg, without vancomycin, day 4, LOD 250): 5.13E+06 cfu/kidney pair
Median cfu/kidney pair ([1]; Example 3C, dose 0.05 mg/kg + vancomycin 110 mg/kg twice daily, day 4, LOD 250): 2.50E+02 cfu/kidney pair
Median cfu/kidney pair ([1]; Example 3C, dose 0.05 mg/kg, without vancomycin, day 4, LOD 250): 1.52E+08 cfu/kidney pair
Median cfu/kidney pair ([1]; Example 3C, dose 0.25 mg/kg + vancomycin 110 mg/kg twice daily, day 4, LOD 250): 3.75E+02 cfu/kidney pair
Median cfu/kidney pair ([1]; Example 3C, dose 0.25 mg/kg, without vancomycin (monotherapy), day 4, LOD 250): 2.13E+04 cfu/kidney pair
bacterial load relative to limit of detection (in words) ([1]; Example 3C, low doses including 0.05 and 0.002 mg/kg, in combination with vancomycin): below the limit of detection
kidney burden relative to limit of detection (in words) ([2]; 0.002-0.25 mg/kg + vancomycin): at or near the limit of detection
Median cfu/kidney pair ([2]; dose 0.002 mg/kg + vancomycin 110 mg/kg twice daily): 2.50E+02 cfu/kidney pair
Median cfu/kidney pair [2, 6]: 2.50E+02 cfu/kidney pair
Median cfu/kidney pair [2, 7]: 6.25E+02 cfu/kidney pair
Median cfu/kidney pair [2, 8]: 2.50E+02 cfu/kidney pair
bacterial load relative to limit of detection (in words) ([2]; dose of 0.002 mg/kg in combination with vancomycin): below the limit of detection

CO[C@H]1/C=C/O[C@@]2(C)Oc3c(C)c(O)c4c(O)c(c(/C=N/N5CCN(C)CC5)c(O)c4c3C2=O)NC(=O)/C(C)=C\C=C\[C@H](C)[C@H](O)[C@@H](C)[C@@H](O)[C@@H](C)[C@H](OC(C)=O)[C@@H]1C [Rifampicin, reference compound]
Median cfu/kidney pair ([1]; Example 3A, dose 0.002 mg/kg + vancomycin 110 mg/kg twice daily, day 4, LOD 250): 3.38E+06 cfu/kidney pair
Median cfu/kidney pair ([1]; Example 3A, dose 0.01 mg/kg + vancomycin 110 mg/kg twice daily, day 4, LOD 250): 3.00E+06 cfu/kidney pair
Median cfu/kidney pair ([1]; Example 3A, dose 0.05 mg/kg + vancomycin 110 mg/kg twice daily, day 4, LOD 250): 2.75E+06 cfu/kidney pair
Median cfu/kidney pair ([1]; Example 3A, dose 0.25 mg/kg + vancomycin 110 mg/kg twice daily, day 4, LOD 250): 2.50E+02 cfu/kidney pair
Median cfu/kidney pair ([1]; Example 3A, dose 25 mg/kg + vancomycin 110 mg/kg twice daily, day 4, LOD 250): 2.50E+02 cfu/kidney pair
Median cfu/kidney pair ([1]; Example 3C, dose 25 mg/kg + vancomycin 110 mg/kg twice daily, day 4, LOD 250): 2.50E+02 cfu/kidney pair
Median cfu/kidney pair ([1]; Example 3C, dose 25 mg/kg, without vancomycin, day 4, LOD 250): 7.07E+08 cfu/kidney pair
Median cfu/kidney pair ([2]; dose 25 mg/kg + vancomycin 110 mg/kg twice daily): 2.50E+02 cfu/kidney pair
